Results: patent US20230097801A1, “METHODS OF INCREASING CELL PHAGOCYTOSIS” (National Health Research Institutes, priority 2021, published 2023)

Columns and labels:
CD47 [1] = experiment: Flow cytometry, anti-human CD47 2D3 control antibody binding on Raji cell surface; format: cell-based; details: Raji cells
Method: (§1) Antibody conjugates and extracellular domain of SIRPα used to analyze cell surface CD47 binding include anti-human CD47 CC2C6, 2D3, recombinant human SIRPα/CD172a Fc chimer protein, and anti-human IgG Fc. To determine inhibition of CD47 binding, cancer cells were treated with compounds of formula (I) at various concentrations for 4 days. Thereafter, the cells were washed with PBS containing 0.5% BSA (FACS buffer) followed by incubation with fluorochrome-labeled antibodies to human CD47 (i.e., CC2C6 and 2D3) at 1:50 dilution in FACS buffer for 30 minutes at 4° C. Compounds of formula (I) produced a dose-dependent inhibition of anti-CD47 CC2C6 antibody that recognized CD47 and SIRPα binding site on the tumor cell surface including B-cell lymphoma Raji cells, colon cancer cells DLD-1, and ovarian cancer SK-OV-3 cells (see FIGS. 1A, 1B, and 1C, respectively).

CD47 [2] = experiment: Flow cytometry, anti-human CD47 CC2C6 antibody binding on DLD-1 cell surface; format: cell-based; details: for IC50: Colon Cancer (DLD-1 cells), 4 days treatment, read-out: IC50, inhibition of CC2C6 binding; for inhibition of binding of anti-human CD47 antibody CC2C6 (in words): DLD-1 cells
Method: (§2) Binding between CD47 and SIRPα was studied by measuring the level of CD47 binding using any suitable method. Flow cytometric analysis is useful to quantify the level of binding of CD47 to antibody CC2C6, which is then subjected to an immune-staining procedure using fluorochrome-conjugated secondary antibody followed by analysis of the immune-staining signal with a flow cytometry instrument to obtain the level of the CD47-CC2C6 binding. In another method, analysis of CD47 is performed using SIRPα-Fc formed from SIRPα fused with human IgG1, which is then subjected to an immune-staining procedure using fluorochrome-conjugated secondary antibody against human IgG1, followed by analysis of the immune-staining signal. SIRPα is expressed on the surface of a myeloid cell such as macrophage, monocyte, neutrophil, or dendritic cell. Alternatively, SIRPα is fused with human IgG1 to form a SIRPα-Fc recombinant protein. […] An anti-cancer agent (e.g., rituximab) can be used together with a compound of formula (I). Useful anti-cancer agents are described above including anti-PD-L1 antibodies, anti-CD20 antibodies, anti-HER2 antibodies, anti-EGFR antibodies, and anti-CD47 antibodies. Other suitable anti-cancer agents are chemotherapeutic agents such as doxorubicin, epirubicin, idarubicin, methotrexate, mitoxantrone, oxaliplatin, and cyclophosphamide.
Human colon cancer DLD-1 cells were obtained from NHRI IBPR HTS Lab, Taiwan. DLD-1 cells were maintained under the same conditions described immediately above.
as §1

CD47 [3] = experiment: Flow cytometry, anti-human CD47 CC2C6 antibody binding on SK-OV-3 cell surface; format: cell-based; details: for inhibition of binding of anti-human CD47 antibody CC2C6 (in words): SK-OV-3 cells; for IC50: Ovarian Cancer (SK-OV3 cells), 4 days treatment, read-out: IC50, inhibition of CC2C6 binding
Method: as §2
SK-OV-3 cells were purchased from ATCC (Manassas, Va.). SK-OV-3 cells were maintained at 37° C. under 5% CO2 in McCoy's 5a medium (Gibco, ThermoFisher, Waltham, Mass.) with 10% fetal bovine serum (FBS) (Sigma-Aldrich, St Louis, Mo.), and 2 mM L-glutamine.
as §1

CD47 [4] = experiment: Flow cytometry, anti-human CD47 CC2C6 antibody binding on Raji cell surface; format: cell-based; details: for IC50: B-cell Lymphoma (Raji cells), 4 days treatment, read-out: IC50, inhibition of CC2C6 binding; for inhibition of binding of anti-human CD47 antibody CC2C6 (in words): Raji cells
Method: as §2
Human B-cell lymphoma Raji cells were purchased from BCRC, Taiwan. Raji cells were maintained at 37° C. under 5% CO2 in RPMI-1640 medium (Hyclone, Marlborough, Mass.) supplemented with 10% fetal bovine serum (FBS) (SAFC, Sigma-Aldrich, St. Louis, Mo.) containing 2 mM L-glutamine (Hyclone, Marlborough, Mass.), 10 mM HEPES (Hyclone, Marlborough, Mass.) and 1 mM sodium pyruvate (Hyclone, Marlborough, Mass.).
as §1

Mouse pk profiles = format: in vivo; details: for clearance / Cmax / bioavailability / half-life: plasma; for bioavailability: PO (30 mg/kg) vs IV (2 mg/kg); for half-life: read-out: T1/2 (h) Plasma (converted)
[5] = tested on: human B-cell lymphoma Raji xenograft tumor; experiment: Raji xenograft dose-dependent efficacy of Compound 34 with rituximab (6 weeks); format: in vivo, NOD/SCID mice; details: rituximab 10 mg/kg alone
Source text: (§3) Human B-cell lymphoma Raji cells were used to evaluate the efficacy of Compound 34 and rituximab in treating cancer cells. Prior to injection into animals, the cancer cells were detected as free of Mycoplasma spp. NOD/SCID mice (BioLasco, Taiwan) were used for in vivo experiments due to their higher affinity of SIRPα to human CD47. The mice used in these studies were housed in Institutional Animal Care and Use Committees-approved facility at National Health Research Institutes in accordance with guidelines for the care and use of laboratory animals.
To evaluate dose-dependent anti-tumor efficacy of Compound 34 in combination with rituximab, mice were treated with vehicle control, rituximab, or rituximab in combination with Compound 34 for 6 weeks. A dosing vehicle for Compound 34 was prepared using 10% DMA: 40% PEG400: 50% (1% CMC) (v/v/v) and was dosed orally (p.o.) at 10 mg/kg, 30 mg/kg, and 100 mg/kg once a day, 5 days a week (Q.D.*5). Rituximab (Roche-Genentech, South San Francisco, Calif.) stock solution was diluted with PBS and dosed at 10 mg/kg twice a week (2QW) by intraperitoneal (i.p.) injection. Cancer growth was measured by volume with an electronic caliper. The volume was calculated as L×W^2/2, in which L is the length of the tumor and W is its width. Tumor size and animal body weight were measured once a week after cancer cell inoculation. Cancer response at the end of the study was calculated as tumor growth inhibition (TGI) using (1−T/C)*100, in which T is the mean tumor volume (mm^3) of the test group, and C is the mean tumor volume (mm^3) of the vehicle-treated group. The treatment response rate were classified into 4 categories: complete regression (CR), in which the tumor was undetectable at the end of study; partial regression (PR), in which the tumor volume was less than or equal to 30% of the initial tumor volume at the end of study; stable disease (SD), in which the tumor volume was between […] of the initial tumor volume at the end of study; progression disease (PD), in which the tumor volume was greater than 50% of the initial tumor volume at the end of study. An overall response rate (ORR) is calculated based on the CR and PR groups. […] When treated with Compound 34 (at 100 mg/kg) in combination with rituximab, 6 out of 10 mice (60%) fell under the CR group, and 1 out of 10 mice (10%) fell under the PR group. On the other hand, no animals had CR (0%) and only 2 out of 10 mice (20%) were PR by rituximab (at 10 mg/kg), resulting in 70% ORR by the combination treatment and 20% by antibody only.

[6] = tested on: human B-cell lymphoma Raji xenograft tumor; experiment: Raji xenograft anti-tumor efficacy and survival study (3 weeks treatment); format: in vivo, NOD/SCID mice; details: Compound 34 100 mg/kg p.o. QD*5, rituximab 10 mg/kg i.p. 2QW
Source text: as §3
One million Raji cells in culture medium and matrigel (1:1, v/v) were injected subcutaneously into the left flank region of the mice (n=7 to 10 animals per group). Treatments were initiated after randomization with inclusion of tumors at approximately 100 mm^3. A dosing vehicle for Compound 34 was prepared using 10% DMA: 40% PEG400: 50% (1% CMC) (v/v/v) and was dosed orally (p.o.) at 100 mg/kg once a day, 5 days a week (Q.D.*5). Rituximab (Roche-Genentech, South San Francisco, Calif.) stock solution was diluted with PBS and dosed at 10 mg/kg twice a week (2QW) by intraperitoneal (i.p.) injection.
To evaluate anti-tumor efficacy and survival rates, mice were treated with vehicle control, 10 mg/kg rituximab (2QW, i.p.), 100 mg/kg Compound 34 (QD*5), or rituximab in combination with Compound 34. Treatment was discontinued at the end of 3 weeks. The mice were monitored for cancer growth and body weight once a week. Cancer growth was measured by volume with an electronic caliper. The volume was calculated as L×W^2/2, in which L is the length of the tumor and W is its width. Tumor size and animal body weight were measured once a week after cancer cell inoculation. Cancer response at the end of the study was calculated as tumor growth inhibition (TGI) using (1−T/C)*100, in which T is the mean tumor volume (mm^3) of the test group, and C is the mean tumor volume (mm^3) of the vehicle-treated group. […] For the survival study, treatment was discontinued at the end of 3 weeks. Thereafter, mice were followed up for tumor growth and body weight once a week. The mice were then sacrificed when tumor volume reached 2,000 mm^3 or body weight loss was greater than 10%. Kaplan-Meier plots were used as the study end point to calculate percentage of animals remaining in the study in term of the time. The median survival days for vehicle control and Compound 34 were 15.5 days and 18 days, respectively (FIG. 5E). Rituximab prolonged median survival days to 28 days after treatment discontinued (FIGS. 5C and 5E). Importantly, the combination of rituximab and Compound 34 further prolonged median survival days to 47 days (FIGS. 5D and 5E).

| IC50 (CD47 [2]) | IC50 (CD47 [4]) | AUC Plasma (Mouse pk profiles; IV (2 mg/kg)) | AUC Plasma (Mouse pk profiles; PO (30 mg/kg)) | clearance (Mouse pk profiles; IV (2 mg/kg)) | Cmax (Mouse pk profiles; PO (30 mg/kg)) | bioavailability (Mouse pk profiles) | half-life (Mouse pk profiles; PO (30 mg/kg)) | IC50 (CD47 [3]) | Molecule | inhibition of binding of anti-human CD47 antibody 2D3 (in words) (CD47 [1]) | inhibition of binding of anti-human CD47 antibody CC2C6 (in words) (CD47 [2]) | inhibition of binding of anti-human CD47 antibody CC2C6 (in words) (CD47 [3]) | inhibition of binding of anti-human CD47 antibody CC2C6 (in words) (CD47 [4]) | other results |
| --- | --- | --- | --- | --- | --- | --- | --- | --- | --- | --- | --- | --- | --- | --- |
| 1010 nM | 840 nM | 3037 ng·h/g | 21170 ng·h/g | 12.7 mL/min/kg | 1780 ng/mL | 47% | 5.2 h | – | O=C1NC[C@H](c2ccc(-c3cnc(C(F)(F)F)s3)cc2)N1c1ccc2[nH]cnc2c1 [Compound 30] | did not inhibit | effectively inhibited | effectively inhibited | effectively inhibited | – |
| 790 nM | 1380 nM | 8185 ng·h/g | 68659 ng·h/g | 4 mL/min/kg | 3720 ng/mL | 56% | 12.7 h | 200 nM | O=C1NC[C@H](c2ccc(-c3csc(C(F)(F)F)c3)cc2)N1c1ccc2[nH]cnc2c1 [Compound 32] | did not inhibit | effectively inhibited | effectively inhibited | effectively inhibited | – |
| 3190 nM | 5950 nM | 520 ng·h/g | 6359 ng·h/g | 64 mL/min/kg | 2020 ng/mL | 82% | 2.8 h | 150 nM | CCCOc1ccc([C@H]2CNC(=O)N2c2ccc3[nH]cnc3c2)cc1 [PQ912, reference compound] | – | – | – | – | – |
| – | – | – | – | – | – | – | – | – | Rituximab: an anti-human CD20 antibody (Roche-Genentech) | – | – | – | – | CR (complete regression), rate [5]: 0 (0%); ORR (overall response rate, CR and PR), rate [5]: 20%; PD (progression disease), rate [5]: 80%; PR (partial regression), rate [5]: 20%; CR (complete regression), number of mice ([5]; of 10 mice): 0 (0%); ORR (overall response rate, CR and PR), number of mice ([5]; of 10 mice): 2; PD (progression disease), number of mice ([5]; of 10 mice): 8; PR (partial regression), number of mice ([5]; of 10 mice): 2; CR (complete regression), rate ([5]; listed as rituximab): 0%; tumor growth inhibition (TGI, % of control) ([6]; 3 weeks): 78.5%; median survival days ([6]; treatment discontinued at 3 weeks): 28 days |
